Several values for one entry are separate records, joined by “and”; a condition that tells them apart may be missing. Equal entries are not always repeated.
How the values were obtained:
[1] = biological target: IKs (KCNQ1 + KCNE1) (Homo sapiens, UniProt P51787); experiment: IKs co-expressed with CiVSP (PIP2 depletion), two-electrode voltage clamp in Xenopus oocytes; type: cell-based
From the text: We co-expressed KCNQ1 with the voltage-dependent lipid phosphatase CiVSP[44] in Xenopus oocytes and recorded KCNQ1 currents using two-electrode voltage clamp with consecutive depolarizing voltage pulses. […] To more directly test CP1 effects, we applied CP1 to the intracellular side of the inside-out membrane patch that expressed IKs channels.

[2] = system: guinea pig ventricular myocytes; experiment: Action potential recording in ventricular myocytes with normal action potentials; type: cell-based; parameters: actional potential duration (APD), Fig. 7h: unit not given here; settings: for actional potential duration (APD), Fig. 7h: Control-Group, individual cells
Experimental: Fig. 7 Effects of CP1 on IKs and action potentials in cardiomyocytes. a IKs currents in guinea pig ventricular myocytes in the absence and presence of 30 µM CP1 in the whole-cell patch-clamp configuration. Holding potential: −40 mV; testing potentials: −20 to +60 mV with 10-mV increment; returning potential: −20 mV. […] Guinea pig ventricular myocytes were first perfused with 10 µM CP1 and 10 µM chromanol. After APD reached steady state, 10 µM CP1 was constitutively perfused alone. Last, CP1 was washed out for near-full reversal of APD shortening. g Effects of 0.2 µM CP1 on LQT action potentials. To mimic the LQT, 100 µM moxifloxacin was applied 2 h before the treatment of CP1. h Change of action potential duration after application of different [CP1]s (n = 5–7). Tukey–Kramer ANOVA test was used to compare control cells in different CP1 concentration, # is significant at P < 0.05. Unpaired two-tailed Student t tests were used to compare control and moxifloxacin cells at different CP1 concentration: * is significant at P < 0.05.
In ventricular myocytes, the duration and the morphology of action potentials are determined by various ion channels. Mutations in many of these channels and drugs that modify channel functions, such as an increase in inward Na^+ currents or decrease in outward K^+ currents, may lead to a prolonged action potential duration, which results in an inherited or acquired long QT syndrome that predisposes afflicted patients to cardiac arrhythmia. An enhancement of the outward IKs current may be able to counter these mutations or drug effects, and restore the action potential duration to more normal values. […] Next, we used an IKr blocker (Moxifloxacin, Moxi) to prolong action potentials and then applied various concentrations of CP1.
The use of guinea pigs was approved by the Stony Brook University Institutional Animal Care and Use Committee. Single ventricular myocytes were acutely enzymatically isolated from guinea pig heart as previously described. Guinea pigs, weighing 300–500 g, were sacrificed by peritoneal injection of sodium pentobarbitone (1 ml, 390 mg/ml). The isolated cells were stored in KB solution containing (in mM) 83 KCl, 30 K2HPO4, 5 MgSO4, 5 Na pyruvate, 5 β-OH-butyric acid, 20 creatine, 20 taurine, 10 glucose, and 0.5 EGTA, pH 7.2.
Action potentials were recorded with whole-cell patch-clamp recording techniques. Current-clamp configuration was used. Freshly isolated guinea pig cardiac myocytes were placed at 1 Hz with a stimulus of 180-pA amplitude and 10-mS duration. The APD was determined at 90% repolarization. Several minutes were allowed for the APD to reach steady state before data were collected. Typical Tyrode mimic AP Solution for action potential recording was used. The bath solution is composed of (in mM) 140 NaCl, 3 KCl, 1 MgCl2, 1.8 CaCl2, 10 HEPES, and 10 Glucose, pH 7.4. The pipette solution is composed of (in mM) 115 K-aspartic acid, 35 KOH, 3 MgCl2, 10 HEPES, 11 EGTA, 5 Glucose, and 3 MgATP, pH 7.4.

## O=S(=O)([O-])Oc1c(-c2sc3c(ccc4cccc(Cl)c43)c2OS(=O)(=O)[O-])[nH]c2ccc(Br)cc12.[Na+].[Na+] [CP1, DISODIUM 5-BROMO-2-[9-CHLORO-3-(SULFONATOOXY) NAPHTHO [1,2-B] THIEN-2-YL]-1H-INDOL-3-YL SULFATE]
[1]; 10 µM CP1, extracellular perfusion, pulses to +60 mV
  IKs currents after PIP2 depletion: rescued IKs currents
[1]; inferred from rescue by extracellular perfusion
  membrane permeability: membrane permeable
[2]; 0.2 µM CP1, control myocytes
  action potential duration: did not alter action potential duration
[2]; 10 µM CP1 alone
  action potential duration (APD): significantly shortened
[2]; 10 µM CP1 perfused together with 10 µM chromanol 293B
  action potential duration (APD): not changed
[2]; 0.6 and 6 µM CP1
  action potentials in control cells: shortened
[2]; 0.2 µM CP1
  actional potential duration (APD), Fig. 7h: 682 and 570 and 576 and 550 and 596 and 520
[2]; 0.6 µM CP1
  actional potential duration (APD), Fig. 7h: 473 and 609 and 463 and 428 and 542 and 511 and 475
[2]; 6 µM CP1
  actional potential duration (APD), Fig. 7h: 347 and 378 and 362 and 454

From PMC7367283, “A PIP2 substitute mediates voltage sensor-pore coupling in KCNQ activation” (Communications Biology, 2020)
